Experimental data: PMC9694544, “Conteltinib (CT-707) in patients with advanced ALK-positive non-small cell lung cancer: a multicenter, open-label, first-in-human phase 1 study” (BMC Medicine, 2022)

Test system: patients with ALK-positive NSCLC
Experiment: Phase 1 safety assessment (TRAEs by CTCAE 4.03, DLT, MTD, RP2D)
Format: in vivo, human
Method: In the dose-escalation phase, the dose was escalated sequentially from a low to a high level with a 3 + 3 dose-escalation scheme based on the modified Fibonacci method. The starting dose for conteltinib was 50 mg orally quaque die (QD). Dose escalation proceeded to the next six cohorts of 100 mg, 200 mg, 300 mg, 450 mg, 600 mg, and 800 mg QD. For each dose, there was a PK lead-in phase where a single dose was given 7 days before cycle 1 day 1. Then, each dose was taken continuously in a 28-day cycle. The first cycle was for dose-limiting toxicity (DLT) investigation. When one of three patients experienced a DLT in a dose cohort, three additional patients were enrolled in the same dose cohort to assess the dose level in a total of six patients. All patients received conteltinib until disease progression, unacceptable toxicity, or withdrawal of consent. Patients received follow-up safety assessments for 30 days (±7 days) after the last conteltinib dose.
In the dose-expansion phase, each dose was taken continuously in a 28-day cycle. At the end of each cycle, a safety evaluation was conducted. If patients met the criteria to enter the next cycle, treatment with conteltinib was continued for subsequent cycles. All patients received conteltinib until disease progression, unacceptable toxicity, or withdrawal of consent. Patients received follow-up safety assessments for 30 days (±7 days) after the last dose of conteltinib.
The safety of conteltinib was assessed in safety set (SS) which was based on the National Cancer Institute Common Terminology Criteria for Adverse Events (CTCAE) version 4.03, laboratory tests, vital signs, ECG, and clinical observations. […] Adverse events (AEs) were judged to be treatment-related or not by investigators.
DLTs were AEs occurring in the first cycle of treatment (28 days) that were attributed to conteltinib, and the criteria were grade 4 neutropenia lasting ≥ 7 days, febrile neutropenia, grade 3 thrombocytopenia, grade 3 non-hematologic toxicity, and any conteltinib-related toxicity resulting in treatment delay > 2 weeks or discontinuation of conteltinib treatment at the assigned dose level. Besides, grade 3 nausea, vomiting, or diarrhea for ≥ 3 days or grade 4 nausea, vomiting, or diarrhea of any duration was considered as a DLT. The MTD was defined as the dose of conteltinib that would be closest to but not higher than a 33% probability of a DLT.

COc1cc(N2CCC(N3CCN(C)CC3)CC2)ccc1Nc1nc2c(c(Nc3ccccc3S(=O)(=O)NC(C)C)n1)CCN2 [Conteltinib]
TRAE Hypertriglyceridemia (800 mg QD (n=4), Grade ≥ 3): 0 (0.0) n (%)
TRAE Hyperuricemia (800 mg QD (n=4), Grade ≥ 3): 0 (0.0) n (%)
TRAE Hypoalbuminemia (800 mg QD (n=4), Grade ≥ 3): 0 (0.0) n (%)
TRAE Nausea (800 mg QD (n=4), Grade ≥ 3): 0 (0.0) n (%)
TRAE Proteinuria (800 mg QD (n=4), Grade ≥ 3): 0 (0.0) n (%)
TRAE Serum creatinine elevated (800 mg QD (n=4), Grade ≥ 3): 0 (0.0) n (%)
TRAE Vomiting (800 mg QD (n=4), Grade ≥ 3): 0 (0.0) n (%)
TRAE Weight loss (800 mg QD (n=4), Grade ≥ 3): 0 (0.0) n (%)
TRAE γ-GGT elevated (800 mg QD (n=4), Grade ≥ 3): 0 (0.0) n (%)
DLTs (800 mg QD cohort): No DLTs were observed
patients with permanent discontinuation due to TRAE (64 patients, impaired liver function): 3.1%
patients with TRAEs leading to conteltinib interruption (64 patients, serum creatinine elevated and impaired liver function): 6.3%
patients with TRAEs leading to dose reduction (64 patients, serum creatinine elevated, neutropenia, impaired liver function): 4.7%
patients with grade ≥ 3 TRAEs (SS, 64 patients): 14.1%
TRAE ALT elevated (SS, 64 patients, all grades): 34.4%
TRAE AST elevated (SS, 64 patients, all grades): 39.1%
TRAE Abdominal pain (SS, 64 patients, all grades): 26.6%
TRAE Abdominal pain upper (SS, 64 patients, all grades): 17.2%
TRAE Appetite decreased (SS, 64 patients, all grades): 18.75%
TRAE Conjugated bilirubin elevated (SS, 64 patients, all grades): 10.9%
TRAE Diarrhea (SS, 64 patients, all grades): 71.9%
TRAE Hypercholesterolemia (SS, 64 patients, all grades): 12.5%
TRAE Hyperglycemia (SS, 64 patients, all grades): 15.6%
TRAE Hypertriglyceridemia (SS, 64 patients, all grades): 23.4%
TRAE Hyperuricemia (SS, 64 patients, all grades): 31.25%
TRAE Hypoalbuminemia (SS, 64 patients, all grades): 17.2%
TRAE Nausea (SS, 64 patients, all grades): 37.5%
TRAE Proteinuria (SS, 64 patients, all grades): 21.9%
TRAE Serum creatinine elevated (SS, 64 patients, all grades): 45.3%
TRAE Vomiting (SS, 64 patients, all grades): 35.9%
TRAE Weight loss (SS, 64 patients, all grades): 28.1%
TRAE γ-GGT elevated (SS, 64 patients, all grades): 32.8%
patients with TRAEs (SS, 64 patients, all grades): 90.6%
TRAE Conjugated bilirubin elevated (SS, 64 patients, grade ≥ 3): 1.6%
TRAE Diarrhea (SS, 64 patients, grade ≥ 3): 3.1%
TRAE Serum creatinine elevated (SS, 64 patients, grade ≥ 3): 1.6%
TRAE γ-GGT elevated (SS, 64 patients, grade ≥ 3): 7.8%
Patients with any TRAE (Total (n=64), All grade): 58 (90.6) n (%)
TRAE ALT elevated (Total (n=64), All grade): 22 (34.4) n (%)
TRAE AST elevated (Total (n=64), All grade): 25 (39.1) n (%)
TRAE Abdominal pain (Total (n=64), All grade): 17 (26.6) n (%)
TRAE Abdominal pain upper (Total (n=64), All grade): 11 (17.2) n (%)
TRAE Appetite decreased (Total (n=64), All grade): 12 (18.8) n (%)
TRAE Conjugated bilirubin elevated (Total (n=64), All grade): 7 (10.9) n (%)
TRAE Diarrhea (Total (n=64), All grade): 46 (71.9) n (%)
TRAE Hypercholesterolemia (Total (n=64), All grade): 8 (12.5) n (%)
TRAE Hyperglycemia (Total (n=64), All grade): 10 (15.6) n (%)
TRAE Hypertriglyceridemia (Total (n=64), All grade): 15 (23.4) n (%)
TRAE Hyperuricemia (Total (n=64), All grade): 20 (31.3) n (%)
TRAE Hypoalbuminemia (Total (n=64), All grade): 11 (17.2) n (%)
TRAE Nausea (Total (n=64), All grade): 24 (37.5) n (%)
TRAE Proteinuria (Total (n=64), All grade): 14 (21.9) n (%)
TRAE Serum creatinine elevated (Total (n=64), All grade): 29 (45.3) n (%)
TRAE Vomiting (Total (n=64), All grade): 23 (35.9) n (%)
TRAE Weight loss (Total (n=64), All grade): 18 (28.1) n (%)
TRAE γ-GGT elevated (Total (n=64), All grade): 21 (32.8) n (%)
Patients with any TRAE (Total (n=64), Grade 1–2): 58 (90.6) n (%)
TRAE ALT elevated (Total (n=64), Grade 1–2): 22 (34.4) n (%)
TRAE AST elevated (Total (n=64), Grade 1–2): 25 (39.1) n (%)
TRAE Abdominal pain (Total (n=64), Grade 1–2): 17 (26.6) n (%)
TRAE Abdominal pain upper (Total (n=64), Grade 1–2): 11 (17.2) n (%)
TRAE Appetite decreased (Total (n=64), Grade 1–2): 12 (18.8) n (%)
TRAE Conjugated bilirubin elevated (Total (n=64), Grade 1–2): 6 (9.4) n (%)
TRAE Diarrhea (Total (n=64), Grade 1–2): 44 (68.8) n (%)
TRAE Hypercholesterolemia (Total (n=64), Grade 1–2): 8 (12.5) n (%)
TRAE Hyperglycemia (Total (n=64), Grade 1–2): 10 (15.6) n (%)
TRAE Hypertriglyceridemia (Total (n=64), Grade 1–2): 15 (23.4) n (%)
TRAE Hyperuricemia (Total (n=64), Grade 1–2): 20 (31.3) n (%)
TRAE Hypoalbuminemia (Total (n=64), Grade 1–2): 11 (17.2) n (%)
TRAE Nausea (Total (n=64), Grade 1–2): 24 (37.5) n (%)
TRAE Proteinuria (Total (n=64), Grade 1–2): 14 (21.9) n (%)
TRAE Serum creatinine elevated (Total (n=64), Grade 1–2): 28 (43.8) n (%)
TRAE Vomiting (Total (n=64), Grade 1–2): 23 (35.9) n (%)
TRAE Weight loss (Total (n=64), Grade 1–2): 18 (28.1) n (%)
TRAE γ-GGT elevated (Total (n=64), Grade 1–2): 16 (25.0) n (%)
Patients with any TRAE (Total (n=64), Grade ≥ 3): 9 (14.1) n (%)
TRAE ALT elevated (Total (n=64), Grade ≥ 3): 0 (0.0) n (%)
TRAE AST elevated (Total (n=64), Grade ≥ 3): 0 (0.0) n (%)
TRAE Abdominal pain (Total (n=64), Grade ≥ 3): 0 (0.0) n (%)
TRAE Abdominal pain upper (Total (n=64), Grade ≥ 3): 0 (0.0) n (%)
TRAE Appetite decreased (Total (n=64), Grade ≥ 3): 0 (0.0) n (%)
TRAE Conjugated bilirubin elevated (Total (n=64), Grade ≥ 3): 1 (1.6) n (%)
TRAE Diarrhea (Total (n=64), Grade ≥ 3): 2 (3.1) n (%)
TRAE Hypercholesterolemia (Total (n=64), Grade ≥ 3): 0 (0.0) n (%)
TRAE Hyperglycemia (Total (n=64), Grade ≥ 3): 0 (0.0) n (%)
TRAE Hypertriglyceridemia (Total (n=64), Grade ≥ 3): 0 (0.0) n (%)
TRAE Hyperuricemia (Total (n=64), Grade ≥ 3): 0 (0.0) n (%)
TRAE Hypoalbuminemia (Total (n=64), Grade ≥ 3): 0 (0.0) n (%)
TRAE Nausea (Total (n=64), Grade ≥ 3): 0 (0.0) n (%)
TRAE Proteinuria (Total (n=64), Grade ≥ 3): 0 (0.0) n (%)
TRAE Serum creatinine elevated (Total (n=64), Grade ≥ 3): 1 (1.6) n (%)
TRAE Vomiting (Total (n=64), Grade ≥ 3): 0 (0.0) n (%)
TRAE Weight loss (Total (n=64), Grade ≥ 3): 0 (0.0) n (%)
TRAE γ-GGT elevated (Total (n=64), Grade ≥ 3): 5 (7.8) n (%)
DLTs (dose-expansion phase): No DLTs were observed
MTD (doses 50 to 800 mg QD): not reached
deaths during treatment (in vivo): No patients died
rash (this study): 6.25%
visual effects (this study): 1.6%
